One assay has as its target T1, Jarid1B (Homo sapiens, UniProt Q9UGL1).
T1 construct: purchased BPS Bioscience or custom made by MolecularThroughput 50121
T1 sequence (Q9UGL1 2-751): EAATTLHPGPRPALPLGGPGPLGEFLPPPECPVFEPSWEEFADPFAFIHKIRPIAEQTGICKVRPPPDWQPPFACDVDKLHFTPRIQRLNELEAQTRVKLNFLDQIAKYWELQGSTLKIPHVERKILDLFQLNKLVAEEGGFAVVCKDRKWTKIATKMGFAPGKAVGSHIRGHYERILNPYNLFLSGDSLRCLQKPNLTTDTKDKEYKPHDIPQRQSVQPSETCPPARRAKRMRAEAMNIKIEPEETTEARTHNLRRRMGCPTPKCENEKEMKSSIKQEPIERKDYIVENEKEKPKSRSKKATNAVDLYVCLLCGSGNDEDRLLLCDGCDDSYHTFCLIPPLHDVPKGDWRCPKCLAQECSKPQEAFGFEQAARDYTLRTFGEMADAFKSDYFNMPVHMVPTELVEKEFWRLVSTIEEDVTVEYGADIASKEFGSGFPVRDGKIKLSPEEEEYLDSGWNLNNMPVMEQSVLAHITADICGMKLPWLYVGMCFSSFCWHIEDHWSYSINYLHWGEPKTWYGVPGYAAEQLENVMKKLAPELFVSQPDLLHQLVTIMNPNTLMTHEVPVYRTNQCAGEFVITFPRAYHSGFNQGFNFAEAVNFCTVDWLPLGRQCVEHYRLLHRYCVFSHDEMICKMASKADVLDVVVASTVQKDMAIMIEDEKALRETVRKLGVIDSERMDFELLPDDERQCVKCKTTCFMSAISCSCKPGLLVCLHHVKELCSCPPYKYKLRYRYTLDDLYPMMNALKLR
Kind of assay: Jarid1B in vitro enzyme inhibition assay (TR-FRET). In kind it is biochemical. From the text:
(§1) This assay determines the ability of a test compound to inhibit Jarid1A, Jarid1B, and JMJD2C demethylase activity. Baculovirus expressed Jarid1A (GenBank Accession #NM_001042603, AA1-1090) was purchased from BPS Bioscience (Cat#50110). Baculovirus expressed Jarid1B (GenBank Accession #NM_006618, AA 2-751) was purchased from BPS Bioscience (Cat #50121) or custom made by MolecularThroughput. Baculovirus expressed JMJD2C (GenBank Accession #BC143571, AA 2-372) was purchased from BPS Bioscience (Cat#50105).
The ability of test compounds to inhibit the activity of Jarid1B was determined in 384-well plate format under the following reaction conditions: 0.8 nM Jarid1B, 300 nM H3K4me3-biotin labeled peptide (Anaspec cat #64357), 2 μM alpha-ketoglutaric acid in assay buffer of 50 mM HEPES, pH7.3, 0.005% Brij35, 0.5 mM TCEP, 0.2 mg/ml BSA, 50 μM sodium L-ascorbate, and 2 μM ammonium iron(II) sulfate. Reaction product was determined quantitatively by TR-FRET after the addition of detection reagent Phycolink Streptavidin-allophycocyanin (Prozyme) and Europium-anti-mono-or di-methylated histone H3 lysine 4 (H3K4me1-2) antibody (PerkinElmer) in the presence of 5 mM EDTA in LANCE detection buffer (PerkinElmer) at a final concentration of 25 nM and 1 nM, respectively.
(§2) The assay reaction was initiated by the following: 2 μl of the mixture of 900 nM H3K4me3-biotin labeled peptide and 6 μM alpha-ketoglutaric acid with 2 μl of 11-point serial diluted inhibitor in 3% DMSO was added to each well of the plate, followed by the addition of 2 μl of 2.4 nM Jarid1B to initiate the reaction. The reaction mixture was incubated at room temperature for 30 minutes, and terminated by the addition of 6 μl of 5 mM EDTA in LANCE detection buffer containing 50 nM Phycolink Streptavidin-allophycocyanin and 2 nM Europium-anti-H3K4me1-2 antibody. Plates were read by EnVisionMultilabel Reader in TR-FRET mode (excitation at 320 nm, emission at 615 nm and 665 nm) after 1 hour incubation at room temperature. A ratio was calculated (665/615) for each well and fitted to determine inhibition constant (IC50).
On the technique in general: Time-resolved FRET reads energy transfer from a long-lived donor to a nearby acceptor.

Another assay deals with T2, JMJD2C (Homo sapiens, UniProt Q9H3R0).
T2 construct: purchased BPS Bioscience 50105
T2 sequence (Q9H3R0 2-372): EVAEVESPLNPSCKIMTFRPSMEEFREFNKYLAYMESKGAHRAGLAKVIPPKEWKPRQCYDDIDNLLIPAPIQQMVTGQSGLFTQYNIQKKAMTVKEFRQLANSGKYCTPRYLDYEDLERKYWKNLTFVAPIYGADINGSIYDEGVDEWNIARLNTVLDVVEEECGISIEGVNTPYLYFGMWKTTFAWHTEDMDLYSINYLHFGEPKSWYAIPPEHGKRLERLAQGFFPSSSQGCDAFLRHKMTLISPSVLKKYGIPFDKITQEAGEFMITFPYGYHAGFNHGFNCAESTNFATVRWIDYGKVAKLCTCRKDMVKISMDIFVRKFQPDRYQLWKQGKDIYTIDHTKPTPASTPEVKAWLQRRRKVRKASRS
Briefly: JMJD2C in vitro enzyme inhibition assay (TR-FRET). Format: biochemical.
Text: as §1
The ability of test compounds to inhibit the activity of JMJD2C was determined in 384-well plate format under the following reaction conditions: 0.3 nM JMJD2C, 300 nM H3K9me3-biotin labeled peptide (Anaspec cat #64360), 2 μM alpha-ketoglutaric acid in assay buffer of 50 mM HEPES, pH7.3, 0.005% Brij35, 0.5 mM TCEP, 0.2 mg/ml BSA, 50 μM sodium L-ascorbate, and 2 μM ammonium iron(II) sulfate. Reaction product was determined quantitatively by TR-FRET after the addition of detection reagent Phycolink Streptavidin-allophycocyanin (Prozyme) and Europium-anti-di-methylated histone H3 lysine 9 (H3K9me2) antibody (PerkinElmer) in the presence of 5 mM EDTA in LANCE detection buffer (PerkinElmer) at a final concentration of 50 nM and 1 nM, respectively.
as §2, with “nM H3K9me3-biotin” for “nM H3K4me3-biotin”, “DMSO were” for “DMSO was”, “of 0.9” for “of 2.4”, “nM JMJD2C” for “nM Jarid1B”, “containing 100” for “containing 50”, “nM Europium-anti-H3K9me2” for “nM Europium-anti-H3K4me1-2”

The values below come from US10526327B2, “Histone demethylase inhibitors” (CELGENE QUANTICEL RESEARCH, INC., priority 2013, dated 2020).

Bounds are passed on as bounds.

In general, IC50 refers to the concentration that gives 50% inhibition. Lower therefore signals inhibition by little substance.

With `Oc1nc(Oc2cnn(Cc3ccccc3)c2)nc2cnccc12` [Example 66, 2-[(1-benzyl-1H-pyrazol-4-yl)oxy]pyrido[3,4-d]pyrimidin-4-ol], the IC50 against Jarid1B and on JMJD2C was not above 100 nM throughout.

Turning to `CC(C)CCn1cc(Oc2nc(O)c3ccnc(-c4cn(C)cn4)c3n2)cn1` [Example 80, 2-[1-(3-methylbutyl)pyrazol-4-yl]oxy-8-(1-methylimidazol-4-yl)pyrido[3,4-d]pyrimidin-4-ol], the IC50 on Jarid1B was not above 100 nM; against JMJD2C, 100 to 1000 nM.

Turning to `COc1nc(O)c2ccncc2n1` [Example 8, 2-methoxypyrido[3,4-d]pyrimidin-4-ol], the IC50 against Jarid1B and against JMJD2C was 100 to 1000 nM in each case.

For the molecule `CCCc1cccc(Oc2nc(O)c3ccncc3n2)c1` [Example 58, 2-(3-propylphenoxy)pyrido[3,4-d]pyrimidin-4-ol], the IC50 against Jarid1B was not above 100 nM; on JMJD2C, 100 to 1000 nM.

Take `Cn1cnc(-c2nccc3c(O)nc(OCc4ccccc4)nc23)c1` [Example 101, 8-(1-methylimidazol-4-yl)-2-phenylmethoxypyrido[3,4-d]pyrimidin-4-ol]: the IC50 against Jarid1B is not above 100 nM; against JMJD2C, 100 to 1000 nM.

As to `CCCOc1nc(O)c2ccncc2n1` [Example 7, 2-propoxy-3H-pyrido[3,4-d]pyrimidin-4-one], the 50% inhibitory concentration (IC50) on Jarid1B and on JMJD2C was 100 to 1000 nM each time.

For `O=C(c1cc(F)cc(Oc2nc(O)c3ccncc3n2)c1)N1CCOCC1` [Example 60], the results for the half-inhibitory concentration (IC50) at Jarid1B and against JMJD2C were not above 100 nM and 100 to 1000 nM, respectively.

Consider `CC(c1ccccc1)n1cc(Oc2nc(O)c3ccncc3n2)cn1` (stereo not shown) [Example 99], for which the values for the IC50 at Jarid1B and against JMJD2C were not above 100 nM and 100 to 1000 nM, respectively.

As for `COc1ccc(Oc2nc(O)c3ccncc3n2)cc1F` [Example 53, 2-(3-fluoro-4-methoxyphenoxy)pyrido[3,4-d]pyrimidin-4-ol], the IC50 at Jarid1B is not above 100 nM; against JMJD2C, 100 to 1000 nM.

As for `O=C(C1CC1)N1CCC(n2cc(Oc3nc(O)c4ccncc4n3)cn2)CC1` [Example 92, cyclopropyl-[4-[4-(4-hydroxypyrido[3,4-d]pyrimidin-2-yl)oxypyrazol-1-yl]piperidin-1-yl]methanone], the concentration for half-maximal inhibition (IC50) against Jarid1B and against JMJD2C was not above 100 nM in each case.

On to `Cn1cnc(-c2nccc3c(O)nc(OCC4CCOC4)nc23)c1` (stereo not shown) [Example 103, 8-(1-methyl-1H-imidazol-4-yl)-2-(oxolan-3-ylmethoxy)pyrido[3,4-d]pyrimidin-4-ol], for which the half-inhibitory concentration (IC50) on Jarid1B and at JMJD2C was not above 100 nM throughout.

As for `Oc1nc(Oc2cnn(Cc3ccccc3F)c2)nc2cnccc12` [Example 87, 2-[1-(2-fluorobenzyl)pyrazol-4-yl]oxypyrido[3,4-d]pyrimidin-4-ol], the 50% inhibitory concentration (IC50) on Jarid1B and at JMJD2C was not above 100 nM in each case.

As for `Cn1cnc(-c2nccc3c(O)nc(OCC(F)(F)F)nc23)c1` [Example 70, 8-(1-methyl-1H-imidazol-4-yl)-2-(2,2,2-trifluoroethoxy)pyrido[3,4-d]pyrimidin-4-ol], the IC50 was not above 100 nM against Jarid1B and 100 to 1000 nM against JMJD2C.

In the case of `CN(C)c1cccc(Oc2nc(O)c3ccncc3n2)c1` [Example 50, 2-[3-(dimethylamino)phenoxy]pyrido[3,4-d]pyrimidin-4-ol], the half-inhibitory concentration (IC50) against Jarid1B is not above 100 nM; against JMJD2C it was 100 to 1000 nM.

Consider `CC(C)(C)OC(=O)Nc1cccc(Oc2nc(O)c3ccncc3n2)c1` [Example 36, tert-butyl N-[3-(4-hydroxypyrido[3,4-d]pyrimidin-2-yl)oxyphenyl]carbamate], for which the 50% inhibitory concentration (IC50) was not above 100 nM against Jarid1B and 100 to 1000 nM against JMJD2C.

For the molecule `COc1ccc(Oc2nc(O)c3ccncc3n2)cc1OC` [Example 38, 2-(3,4-dimethoxyphenoxy)pyrido[3,4-d]pyrimidin-4-ol], the IC50 is not above 100 nM on Jarid1B and 100 to 1000 nM on JMJD2C.

For `CCc1cccc(Oc2nc(O)c3ccncc3n2)c1` [Example 57, 2-(3-ethylphenoxy)pyrido[3,4-d]pyrimidin-4-ol], the IC50 against Jarid1B and against JMJD2C was not above 100 nM in each case.

Turning to `Oc1nc(Oc2ccnc(N3CCNCC3)c2)nc2cnccc12` [Example 96, 2-(2-piperazin-1-ylpyridin-4-yl)oxypyrido[3,4-d]pyrimidin-4-ol], the 50% inhibitory concentration (IC50) was not above 100 nM against Jarid1B and 100 to 1000 nM against JMJD2C.

Turning to `Cn1cnc(-c2nccc3c(O)nc(OCCCC(F)(F)F)nc23)c1` [Example 74, 8-(1-methylimidazol-4-yl)-2-(4,4,4-trifluorobutoxy)pyrido[3,4-d]pyrimidin-4-ol], the IC50 on Jarid1B was not above 100 nM; at JMJD2C, 100 to 1000 nM.

Regarding `OCCOc1nc(O)c2ccncc2n1` [Example 3, 2-(2-hydroxyethoxy)pyrido[3,4-d]pyrimidin-4-ol], the half-inhibitory concentration (IC50) on Jarid1B and at JMJD2C was 100 to 1000 nM each time.

As for `Oc1nc(Oc2cnn(C3CCNCC3)c2)nc2cnccc12` [Example 89, 2-(1-piperidin-4-ylpyrazol-4-yl)oxypyrido[3,4-d]pyrimidin-4-ol], the IC50 at Jarid1B and at JMJD2C was not above 100 nM throughout.

`Cn1cnc(-c2nccc3c(O)nc(OCc4cccc(F)c4)nc23)c1` [Example 104, 2-[(3-fluorophenyl)methoxy]-8-(1-methyl-1H-imidazol-4-yl)pyrido[3,4-d]pyrimidin-4-ol]: the half-maximal inhibitory concentration (IC50) on Jarid1B and on JMJD2C was not above 100 nM each time.

For the molecule `CCn1cc(Oc2nc(O)c3ccncc3n2)cn1` [Example 62, 2-[(1-ethyl-1H-pyrazol-4-yl)oxy]pyrido[3,4-d]pyrimidin-4-ol], the concentration for half-maximal inhibition (IC50) against Jarid1B and against JMJD2C was not above 100 nM each time.
